Test results: PubChem BioAssay AID488867 (Broad Institute, 2010)
The source made the active and inactive calls.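 Rule for the calls: active = a rising curve with AC50 no higher than ten times the top valid dose of that compound; inconclusive = flat curve between 30 and 70 percent, or failed fit; inactive = the rest.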

Test system: INS-1E cytokine-induced apoptosis, JC-1 mitochondrial potential, 48 h
Assay: INS-1E mitochondrial potential loss inhibitors – cell-based, JC-1 fluorescence, dry powder, set 2, dose response (AID 488867)
Settings: not given
For COc1ccc(S(=O)(=O)N(C)C[C@@H]2Oc3c(NC(=O)Nc4cccc5ccccc45)cccc3C(=O)N([C@H](C)CO)C[C@H]2C)cc1, the AC50 was > 23.5 µM (inactive). In the case of COc1ccc(S(=O)(=O)N(C)C[C@H]2Oc3c(NC(=O)Nc4cccc5ccccc45)cccc3C(=O)N([C@@H](C)CO)C[C@@H]2C)cc1, the AC50 is reported as > 26 µM (inactive). With COc1ccc(S(=O)(=O)N(C)C[C@@H]2Oc3c(NC(=O)Nc4ccccc4)cccc3C(=O)N([C@H](C)CO)C[C@H]2C)cc1 the AC50 was > 26 µM (inactive). With Cc1ccc(S(=O)(=O)N(C)C[C@@H]2Oc3c(NC(=O)Nc4ccccc4)cccc3C(=O)N([C@@H](C)CO)C[C@H]2C)cc1 the AC50 was > 26 µM (inactive).

Test system: not listed separately
Assay: as above
Settings: INS-1E cytokine-induced apoptosis, JC-1 mitochondrial potential, 48 h; at 12 µM (top of the series)
With C[C@@H]1CN([C@@H](C)CO)C(=O)c2cccc(NC(=O)Nc3cccc4ccccc34)c2O[C@H]1CN(C)S(=O)(=O)c1ccc2c(c1)OCCO2 the protection from cytokine-induced depolarization was 29.7% (inactive).

Same assay, conditions: INS-1E cytokine-induced apoptosis, JC-1 mitochondrial potential, 48 h; at 23.5 µM (top of the series)
With COc1ccc(S(=O)(=O)N(C)C[C@@H]2Oc3c(cccc3N(C)C)C(=O)N([C@@H](C)CO)C[C@H]2C)cc1 the protection from cytokine-induced depolarization was -4.35% (inactive). In the case of C[C@@H]1CN([C@@H](C)CO)C(=O)c2cccc(NC(=O)Nc3cccc4ccccc34)c2O[C@H]1CN(C)C(=O)Nc1ccccc1, the protection from cytokine-induced depolarization is reported as 2.8% (inactive).

Same assay, conditions: INS-1E cytokine-induced apoptosis, JC-1 mitochondrial potential, 48 h; at 26 µM (top of the series)
With C[C@@H]1CN([C@@H](C)CO)C(=O)c2cccc(NC(=O)Nc3cccc4ccccc34)c2O[C@H]1CN(C)C(=O)NC1CCCCC1 the protection from cytokine-induced depolarization was -6.42% (inactive). For COc1cccc(S(=O)(=O)N(C)C[C@@H]2Oc3c(NC(=O)Nc4cccc5ccccc45)cccc3C(=O)N([C@@H](C)CO)C[C@H]2C)c1, the protection from cytokine-induced depolarization was 5.29% (inactive). In the case of COc1ccc(S(=O)(=O)N(C)C[C@@H]2Oc3c(NC(=O)C4CCCCC4)cccc3C(=O)N([C@@H](C)CO)C[C@H]2C)cc1, the protection from cytokine-induced depolarization is reported as 2.77% (inactive). In the case of COc1ccc(NC(=O)Nc2cccc3c2O[C@@H](CN(C)S(=O)(=O)c2ccc(OC)cc2)[C@H](C)CN([C@@H](C)CO)C3=O)cc1, the protection from cytokine-induced depolarization is reported as 0.556% (inactive). For COc1ccc(S(=O)(=O)N(C)C[C@@H]2Oc3c(NC(=O)c4cnccn4)cccc3C(=O)N([C@@H](C)CO)C[C@H]2C)cc1, the protection from cytokine-induced depolarization was -9.35% (inactive). In the case of C[C@@H]1CN([C@@H](C)CO)C(=O)c2cccc(NC(=O)Nc3cccc4ccccc34)c2O[C@H]1CN(C)S(=O)(=O)c1ccc(OC(F)(F)F)cc1, the protection from cytokine-induced depolarization is reported as -2.77% (inactive). With COc1ccc(S(=O)(=O)N(C)C[C@@H]2Oc3c(NS(=O)(=O)c4ccc(F)cc4)cccc3C(=O)N([C@@H](C)CO)C[C@H]2C)cc1 the protection from cytokine-induced depolarization was -3.26% (inactive). With C[C@@H]1CN([C@@H](C)CO)C(=O)c2cccc(NC(=O)Nc3cccc4ccccc34)c2O[C@H]1CN(C)S(=O)(=O)c1ccc2c(c1)OCCO2 the protection from cytokine-induced depolarization was 26.8% (inactive). In the case of C[C@@H]1CN([C@@H](C)CO)C(=O)c2cccc(NC(=O)Nc3cccc4ccccc34)c2O[C@H]1CN(C)S(=O)(=O)c1cccs1, the protection from cytokine-induced depolarization is reported as 3.88% (inactive). With COc1ccc(S(=O)(=O)Nc2cccc3c2O[C@@H](CN(C)S(=O)(=O)c2ccc(OC)cc2)[C@H](C)CN([C@@H](C)CO)C3=O)cc1 the protection from cytokine-induced depolarization was 3.9% (inactive). For COc1ccccc1S(=O)(=O)N(C)C[C@@H]1Oc2c(NC(=O)Nc3cccc4ccccc34)cccc2C(=O)N([C@@H](C)CO)C[C@H]1C, the protection from cytokine-induced depolarization was -3.43% (inactive). In the case of Cc1ccc(S(=O)(=O)N(C)C[C@@H]2Oc3c(NC(=O)Nc4ccccc4)cccc3C(=O)N([C@H](C)CO)C[C@H]2C)cc1, the protection from cytokine-induced depolarization is reported as 11.2% (inactive).
